Values quoted from earlier work as cited in US20220387439A1, “ANTI-INFLAMMATORY PHARMACEUTICAL COMPOSITION COMPRISING PROBIOTICS AND ANTIBIOTICS, AND METHOD USING SAME” (priority 2019, published 2022).

System: patient with otitis media
Conditions: Patient 1, otitis media for more than several years; antibiotics taken at other hospitals

Question: With `N[C@@H](C(=O)N[C@@H]1C(=O)N2C(C(=O)O)=C(Cl)CS[C@H]12)c1ccccc1` [cefaclor] as the compound, how does the “treatment effect of antibiotics taken earlier” value read?
Answer: no treatment effect
